In patent US5528046A, “Method and device for determining the location and number of fluorescent molecules” (Hamamatsu Photonics K.K., priority 1992, dated 1996):

Experiments:
[1] = biological target: streptavidin (SA), tetramer (Streptomyces avidinii, UniProt P22629); settings: cited from earlier work
bovine serum albumin = bovine serum albumin (Bos taurus, UniProt P02769); experiment: Affinity of bovine serum albumin for FLB (FLB absorption spectrum); format: binding; settings: causes no changes to FLB spectrum
Chain of bovine serum albumin (P02769 25-607): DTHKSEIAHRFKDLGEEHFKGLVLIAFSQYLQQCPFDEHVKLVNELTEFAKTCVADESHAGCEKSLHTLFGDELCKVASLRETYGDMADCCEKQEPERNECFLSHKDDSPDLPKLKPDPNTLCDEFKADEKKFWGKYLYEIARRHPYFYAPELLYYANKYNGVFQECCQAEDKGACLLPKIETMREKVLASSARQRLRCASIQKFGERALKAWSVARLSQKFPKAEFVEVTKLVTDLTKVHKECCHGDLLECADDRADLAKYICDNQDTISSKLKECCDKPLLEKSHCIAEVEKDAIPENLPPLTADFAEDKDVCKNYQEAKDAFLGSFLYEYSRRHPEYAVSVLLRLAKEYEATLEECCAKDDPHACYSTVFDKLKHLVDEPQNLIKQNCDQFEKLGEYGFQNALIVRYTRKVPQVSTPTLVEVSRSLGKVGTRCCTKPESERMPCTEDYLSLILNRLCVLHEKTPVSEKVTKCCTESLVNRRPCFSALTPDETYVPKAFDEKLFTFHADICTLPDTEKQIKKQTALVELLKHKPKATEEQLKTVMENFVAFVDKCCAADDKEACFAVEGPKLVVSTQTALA
Description: Foster and Konig report that is has been found based on changes of absorption spectra of some organic dye molecules (fluorescent molecules) containing a fluorescent substrate in water that the organic dye molecules form dimers at high concentration (10^-3 -10^-1 M). Koizumi and Mataga report a change of absorption spectrum in an aqueous solution containing fluorescent molecules in the presence of electrolytic polymers. Based on these studies, it is considered that changes of the spectra are caused by the cohesive effect of the fluorescent molecules to the polymers. Considering these past studies and the bonding between SA and B due to their high affinity, it is considered that similarly sufficient local adhesion effects of FLB to SA can be present. This is further optical evidence of the interaction between SA and FLB. For example, bovine serum albumin, which has no affinity with FLB, causes no changes to FLB spectrum.

Chain of streptavidin (SA), tetramer (P22629 25-183): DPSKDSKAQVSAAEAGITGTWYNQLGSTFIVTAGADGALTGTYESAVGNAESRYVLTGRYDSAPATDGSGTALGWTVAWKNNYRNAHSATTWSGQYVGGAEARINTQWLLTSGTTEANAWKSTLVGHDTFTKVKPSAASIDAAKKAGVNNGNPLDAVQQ

Row | SMILES | lifetime of the SA/B complex [1] | affinity with FLB (bovine serum albumin)
1 | O=C(O)CCCC[C@@H]1SC[C@@H]2NC(=O)N[C@@H]21 [B, biotin] | about 2.9 days | –
2 | O=C(CCCCCNC(=O)CCCC[C@@H]1SC[C@@H]2NC(=O)N[C@@H]21)NCCCCCNC(=S)Nc1ccc2c(c1)C(=O)OC21c2ccc(O)cc2Oc2cc(O)ccc21 [FLB, fluorescein biotin] | – | no affinity
